Earlier results on one compound are cited in patent US20090239923A1 (priority 2008, published 2009).

In this series the test system is human body. The conditions noted are these: ingestion, 70 Kg human body; 90 mL = 70 g.

For `CO` [methanol], the Lethal dose is given as 90 mL.
